According to US20230085307A1, “PYRIDAZINONE COMPOUND AND HERBICIDE” (NISSAN CHEMICAL CORPORATION, priority 2019, published 2023):

Tests used:
[1] = system: late watergrass; assay: Test Example 2: herbicidal activity, application during weed generation under submerged conditions (Table 17, symbol A); assay type: in vivo, late watergrass (Echinochloa oryzicola); conditions: AAH 320 g/ha; application during weed generation, submerged conditions
Summary of the method: (§1)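 Wagner pot, alluvial soil, 4 cm flood; mixed sowing of all species; greenhouse 25° C.–30° C. Emulsifiable formulation, water-diluted to predetermined dose, applied to paddy water at 1–2 leaf stage. Effect rated at 3 wk using the earlier test's scoring criteria.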

[2] = system: green foxtail; assay: Test Example 5: herbicidal effect by foliage application, plastic box (Table 20, symbol G); assay type: in vivo, green foxtail (Setaria viridis); conditions: foliage application, 320 g/ha; for effect on green foxtail (G): 3 weeks after application
Summary of the method: (§2)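 Plants sown in sterilized diluvial soil and grown 14 days in a greenhouse at 25° C to 30° C, then sprayed on the foliage with the compound's emulsion diluted in water to a predetermined herbicide amount. Injury to weeds and crops scored three weeks after application on a visual rating scale.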

[3] = system: Italian ryegrass; assay: Test Example 5: herbicidal effect by foliage application, plastic box (Table 20, symbol K); assay type: in vivo, Italian ryegrass (Lolium multiflorum); conditions: foliage application, 320 g/ha; for effect on Italian ryegrass (K): 3 weeks after application
Summary of the method: as §2

[4] = system: velvetleaf; assay: Test Example 4: herbicidal effect by soil treatment (Table 19, symbol M); assay type: in vivo, velvetleaf (Abutilon theophrasti); conditions: 320 g/ha
Summary of the method: (§3)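 Three weeks of greenhouse growth at 25° C. to 30° C. followed a uniform surface spray of water-diluted emulsion at a predetermined herbicide amount. Seeds had been sown beforehand under about 1.5 cm of sterilized diluvial soil. Grading followed criteria set out in an earlier test.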

[5] = system: Italian ryegrass; assay: Test Example 4: herbicidal effect by soil treatment (Table 19, symbol K); assay type: in vivo, Italian ryegrass (Lolium multiflorum); conditions: 320 g/ha
Summary of the method: as §3

[6] = system: persian speedwell; assay: Test Example 5: herbicidal effect by foliage application, plastic box (Table 20, symbol R); assay type: in vivo, Persian speedwell (Veronica persica); conditions: foliage application, 320 g/ha; for effect on persian speedwell (R): 3 weeks after application
Summary of the method: as §2

[7] = system: velvetleaf; assay: Test Example 5: herbicidal effect by foliage application, plastic box (Table 20, symbol M); assay type: in vivo, velvetleaf (Abutilon theophrasti); conditions: foliage application, 320 g/ha; for effect on velvetleaf (M): 3 weeks after application
Summary of the method: as §2

[8] = system: oval-leafed pondweed; assay: Test Example 1: herbicidal activity, application before weed generation under submerged conditions (Table 16, symbol C); assay type: in vivo, oval-leafed pondweed (Monochoria vaginalis); conditions: 320 g/ha applied herbicide
Summary of the method: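 Emulsion formulation, water-diluted to set dose, was put onto the flooded surface (4 cm depth, alluvial soil) the same day weeds were sown and 2.5-leaf rice transplanted. After 3 weeks at 25-30 °C under glass, each species was rated 0 (≤5% kill) to 5 (≥90% kill).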

[9] = system: blackgrass; assay: Test Example 4: herbicidal effect by soil treatment (Table 19, symbol J); assay type: in vivo, blackgrass (Alopecurus myosuroides); conditions: 320 g/ha
Summary of the method: as §3

[10] = system: wild oat; assay: Test Example 4: herbicidal effect by soil treatment (Table 19, symbol I); assay type: in vivo, wild oat (Avena fatua); conditions: 320 g/ha
Summary of the method: as §3

[11] = system: wild oat; assay: Test Example 5: herbicidal effect by foliage application, plastic box (Table 20, symbol I); assay type: in vivo, wild oat (Avena fatua); conditions: foliage application, 320 g/ha; for effect on wild oat (I): 3 weeks after application
Summary of the method: as §2

[12] = system: green foxtail; assay: Test Example 4: herbicidal effect by soil treatment (Table 19, symbol G); assay type: in vivo, green foxtail (Setaria viridis); conditions: 320 g/ha
Summary of the method: as §3

[13] = system: chickweed; assay: Test Example 4: herbicidal effect by soil treatment (Table 19, symbol P); assay type: in vivo, common chickweed (Stellaria media); conditions: 320 g/ha
Summary of the method: as §3

[14] = system: southern crabgrass; assay: Test Example 5: herbicidal effect by foliage application, plastic box (Table 20, symbol F); assay type: in vivo, southern crabgrass (Digitaria ciliaris); conditions: foliage application, 320 g/ha; for effect on southern crabgrass (F): 3 weeks after application
Summary of the method: as §2

[15] = system: oval-leafed pondweed; assay: Test Example 2: herbicidal activity, application during weed generation under submerged conditions (Table 17, symbol C); assay type: in vivo, oval-leafed pondweed (Monochoria vaginalis); conditions: AAH 320 g/ha; application during weed generation, submerged conditions
Summary of the method: as §1

[16] = system: rice flat sedge; assay: Test Example 3: herbicidal effect by foliage application, Wagner pot (Table 18, symbol E); assay type: in vivo, rice flat sedge (Cyperus iria); conditions: 320 g/ha
Summary of the method: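 Plants were sown in alluvial soil held under 0.1–0.5 cm standing water and grown 14 days in a greenhouse at 25–30 °C. An emulsifiable formulation, water-diluted to the set dose, was then sprayed onto the foliage, and effects were scored three weeks later using previously defined criteria.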

[17] = system: redroot pigweed; assay: Test Example 4: herbicidal effect by soil treatment (Table 19, symbol N); assay type: in vivo, redroot pigweed (Amaranthus retroflexus); conditions: 320 g/ha
Summary of the method: as §3

[18] = evaluated three weeks after application

CCCCOc1ccc(-c2sc3ccc(F)cc3c2-c2c(O)c(C)nn(C)c2=O)cc1 [2-036]
herbicidal effect rating, A: late watergrass [1]: 0 (Herbicidal rate of 5% or less (almost no effect)) | effect on green foxtail (G) [2]: 5 (Herbicidal rate of 90% or more (almost completely withered)) | effect on Italian ryegrass (K) [3]: 3 (Herbicidal rate of 40% or more and less than 70%) | herbicidal effect rating, M: velvetleaf [4]: 4 (Herbicidal rate of 70% or more and less than 90%) | herbicidal effect rating, K: Italian ryegrass [5]: 0 (Herbicidal rate of 5% or less (almost no effect)) | effect on persian speedwell (R) [6]: 5 (Herbicidal rate of 90% or more (almost completely withered)) | effect on velvetleaf (M) [7]: 5 (Herbicidal rate of 90% or more (almost completely withered)) | Herbicidal effect on C: oval-leafed pondweed (grade 0-5) [8]: 4 (Herbicidal rate of 70% or more and less than 90%) | herbicidal effect rating, J: blackgrass [9]: 0 (Herbicidal rate of 5% or less (almost no effect)) | herbicidal effect rating, I: wild oat [10]: 0 (Herbicidal rate of 5% or less (almost no effect)) | effect on wild oat (I) [11]: 4 (Herbicidal rate of 70% or more and less than 90%) | herbicidal effect rating, G: green foxtail [12]: 0 (Herbicidal rate of 5% or less (almost no effect)) | herbicidal effect rating, P: chickweed [13]: 3 (Herbicidal rate of 40% or more and less than 70%) | effect on southern crabgrass (F) [14]: 4 (Herbicidal rate of 70% or more and less than 90%) | herbicidal effect rating, C: oval-leafed pondweed [15]: 3 (Herbicidal rate of 40% or more and less than 70%) | herbicidal effect on E (rice flat sedge), rating 0-5 [16]: 5 (Herbicidal rate of 90% or more (almost completely withered)) | herbicidal effect rating, N: redroot pigweed [17]: 5 (Herbicidal rate of 90% or more (almost completely withered))

CCCC(=O)Oc1c(C)nn(C)c(=O)c1-c1c(-c2ccc(OC(F)(F)F)cc2)sc2ccc(F)cc12 [2-046]
herbicidal effect rating, A: late watergrass [1]: 1 (Herbicidal rate of 5% or more and less than 20%) | effect on green foxtail (G) [2]: 5 (Herbicidal rate of 90% or more (almost completely withered)) | effect on Italian ryegrass (K) [3]: 4 (Herbicidal rate of 70% or more and less than 90%) | herbicidal effect rating, M: velvetleaf [4]: 3 (Herbicidal rate of 40% or more and less than 70%) | herbicidal effect rating, K: Italian ryegrass [5]: 3 (Herbicidal rate of 40% or more and less than 70%) | effect on persian speedwell (R) [6]: 5 (Herbicidal rate of 90% or more (almost completely withered)) | effect on velvetleaf (M) [7]: 5 (Herbicidal rate of 90% or more (almost completely withered)) | Herbicidal effect on C: oval-leafed pondweed (grade 0-5) [8]: 3 (Herbicidal rate of 40% or more and less than 70%) | herbicidal effect rating, J: blackgrass [9]: 0 (Herbicidal rate of 5% or less (almost no effect)) | herbicidal effect rating, I: wild oat [10]: 0 (Herbicidal rate of 5% or less (almost no effect)) | effect on wild oat (I) [11]: 0 (Herbicidal rate of 5% or less (almost no effect)) | herbicidal effect rating, G: green foxtail [12]: 4 (Herbicidal rate of 70% or more and less than 90%) | herbicidal effect rating, P: chickweed [13]: 5 (Herbicidal rate of 90% or more (almost completely withered)) | effect on southern crabgrass (F) [14]: 0 (Herbicidal rate of 5% or less (almost no effect)) | herbicidal effect rating, C: oval-leafed pondweed [15]: 0 (Herbicidal rate of 5% or less (almost no effect)) | herbicidal effect on E (rice flat sedge), rating 0-5 [16]: 5 (Herbicidal rate of 90% or more (almost completely withered)) | herbicidal effect rating, N: redroot pigweed [17]: 4 (Herbicidal rate of 70% or more and less than 90%)

Cc1nn(C)c(=O)c(-c2c(-c3ccc(OCCF)cc3)sc3ccc(F)cc23)c1O [2-047]
herbicidal effect rating, A: late watergrass [1]: 0 (Herbicidal rate of 5% or less (almost no effect)) | effect on green foxtail (G) [2]: 5 (Herbicidal rate of 90% or more (almost completely withered)) | effect on Italian ryegrass (K) [3]: 4 (Herbicidal rate of 70% or more and less than 90%) | herbicidal effect rating, M: velvetleaf [4]: 5 (Herbicidal rate of 90% or more (almost completely withered)) | herbicidal effect rating, K: Italian ryegrass [5]: 1 (Herbicidal rate of 5% or more and less than 20%) | effect on persian speedwell (R) [6]: 5 (Herbicidal rate of 90% or more (almost completely withered)) | effect on velvetleaf (M) [7]: 5 (Herbicidal rate of 90% or more (almost completely withered)) | Herbicidal effect on C: oval-leafed pondweed (grade 0-5) [8]: 2 (Herbicidal rate of 20% or more and less than 40%) | herbicidal effect rating, J: blackgrass [9]: 0 (Herbicidal rate of 5% or less (almost no effect)) | herbicidal effect rating, I: wild oat [10]: 2 (Herbicidal rate of 20% or more and less than 40%) | effect on wild oat (I) [11]: 3 (Herbicidal rate of 40% or more and less than 70%) | herbicidal effect rating, G: green foxtail [12]: 5 (Herbicidal rate of 90% or more (almost completely withered)) | herbicidal effect rating, P: chickweed [13]: 4 (Herbicidal rate of 70% or more and less than 90%) | effect on southern crabgrass (F) [14]: 5 (Herbicidal rate of 90% or more (almost completely withered)) | herbicidal effect rating, C: oval-leafed pondweed [15]: 2 (Herbicidal rate of 20% or more and less than 40%) | herbicidal effect on E (rice flat sedge), rating 0-5 [16]: 5 (Herbicidal rate of 90% or more (almost completely withered)) | herbicidal effect rating, N: redroot pigweed [17]: 5 (Herbicidal rate of 90% or more (almost completely withered))

Cc1nn(C)c(=O)c(-c2c(-c3ccc(OCC(F)(F)F)cc3)sc3ccc(F)cc23)c1O [2-049]
herbicidal effect rating, A: late watergrass [1]: 0 (Herbicidal rate of 5% or less (almost no effect)) | herbicidal effect on G: green foxtail [2, 18]: 5 (Herbicidal rate of 90% or more (almost completely withered)) | herbicidal effect on K: Italian ryegrass [3, 18]: 5 (Herbicidal rate of 90% or more (almost completely withered)) | herbicidal effect rating, M: velvetleaf [4]: 5 (Herbicidal rate of 90% or more (almost completely withered)) | herbicidal effect rating, K: Italian ryegrass [5]: 4 (Herbicidal rate of 70% or more and less than 90%) | herbicidal effect on R: persian speedwell [6, 18]: 5 (Herbicidal rate of 90% or more (almost completely withered)) | herbicidal effect on M: velvetleaf [7, 18]: 5 (Herbicidal rate of 90% or more (almost completely withered)) | Herbicidal effect on C: oval-leafed pondweed (grade 0-5) [8]: 3 (Herbicidal rate of 40% or more and less than 70%) | herbicidal effect rating, J: blackgrass [9]: 4 (Herbicidal rate of 70% or more and less than 90%) | herbicidal effect rating, I: wild oat [10]: 0 (Herbicidal rate of 5% or less (almost no effect)) | herbicidal effect on I: wild oat [11, 18]: 5 (Herbicidal rate of 90% or more (almost completely withered)) | herbicidal effect rating, G: green foxtail [12]: 5 (Herbicidal rate of 90% or more (almost completely withered)) | herbicidal effect rating, P: chickweed [13]: 5 (Herbicidal rate of 90% or more (almost completely withered)) | herbicidal effect on F: southern crabgrass [14, 18]: 5 (Herbicidal rate of 90% or more (almost completely withered)) | herbicidal effect rating, C: oval-leafed pondweed [15]: 2 (Herbicidal rate of 20% or more and less than 40%) | herbicidal effect on E (rice flat sedge), rating 0-5 [16]: 5 (Herbicidal rate of 90% or more (almost completely withered)) | herbicidal effect rating, N: redroot pigweed [17]: 5 (Herbicidal rate of 90% or more (almost completely withered))
